For 14 compounds, MIC50, Activity and IC50 results are on record in ChEMBL document CHEMBL5038624, “Construction and activity evaluation of novel dual-target (SE/CYP51) anti-fungal agents containing amide naphthyl structure” (Eur J Med Chem, 2022).

Test [1] relates to Candida albicans. The test can be described thus: Antifungal activity against Candida albicans SC5314 assessed as reduction in fungal growth incubated for 72 hrs by CLSI protocol based broth microdilution method. It is filed as functional. For orientation: In broth dilution the organism is exposed to a series of concentrations in liquid medium.
The test system of test [2] is Nakaseomyces glabratus. The test can be described thus: Antifungal activity against Candida glabrata ATCC 0001 assessed as reduction in fungal growth incubated for 72 hrs by CLSI protocol based broth microdilution method. It is filed as functional.
Test [3] concerns Pichia kudriavzevii. The test can be described thus: Antifungal activity against Candida krusei ATCC 6258 assessed as reduction in fungal growth incubated for 72 hrs by CLSI protocol based broth microdilution method. It is filed as functional.
In test [4] the test system is Candida tropicalis. Nature of the test: Antifungal activity against Candida tropicalis ATCC 1369 assessed as reduction in fungal growth incubated for 72 hrs by CLSI protocol based broth microdilution method. It is filed as functional.
Test [5] deals with Aspergillus fumigatus. Nature of the test: Antifungal activity against Aspergillus fumigatus KM8001 assessed as reduction in fungal growth incubated for 72 hrs by CLSI protocol based broth microdilution method. It is filed as functional.
The subject of test [6] is Candida albicans. Nature of the test: Antifungal activity against Candida albicans strain 17 assessed as reduction in fungal growth incubated for 72 hrs by CLSI protocol based broth microdilution method. Type of test: functional.
Test [7] concerns Candida albicans. Nature of the test: Antifungal activity against Candida albicans strain CaR assessed as reduction in fungal growth incubated for 72 hrs by CLSI protocol based broth microdilution method. It is filed as functional.
The test system of test [8] is Candida albicans. The test can be described thus: Antifungal activity against Candida albicans strain 632 assessed as reduction in fungal growth incubated for 72 hrs by CLSI protocol based broth microdilution method. Type of test: functional.
Test [9] relates to Candida albicans. The test can be described thus: Antifungal activity against Candida albicans strain 901 assessed as reduction in fungal growth incubated for 72 hrs by CLSI protocol based broth microdilution method. It is filed as functional.
For test [10], the system named is Candida albicans. The test can be described thus: Antifungal activity against Candida albicans strain 904 assessed as reduction in fungal growth incubated for 72 hrs by CLSI protocol based broth microdilution method. Type of test: functional.
Test [11] deals with Candida albicans. Nature of the test: Induction of apoptosis against Candida albicans ATCC SC5314 assessed as viable cells measured after 48 hrs by Annexin V-FITC/propidium iodide staining based flow cytometry (reference value: 80.78 %). Type of test: functional. On the technique in general: Flow cytometry measures light scatter and fluorescence of single cells or particles in a stream.

The test system of test [12] is Candida albicans. Nature of the test: Induction of apoptosis against Candida albicans ATCC SC5314 assessed as mild apoptotic cells measured after 48 hrs by Annexin V-FITC/propidium iodide staining based flow cytometry (Rvb =0.29 %). It is filed as functional.
Test [13] concerns Candida albicans. Nature of the test: Induction of apoptosis against Candida albicans ATCC SC5314 assessed as necrotic cells measured after 48 hrs by Annexin V-FITC/propidium iodide staining based flow cytometry (reference value: 18.22 %). It is filed as functional.
For test [14], the system named is Candida albicans. The test can be described thus: Induction of apoptosis against Candida albicans ATCC SC5314 assessed as late apoptotic cells measured after 48 hrs by Annexin V-FITC/propidium iodide staining based flow cytometry (reference value: 0.71 %). Type of test: functional.
Test [15] deals with Candida albicans. The test can be described thus: Inhibition of SE/CYP51 in Candida albicans ATCC SC5314 assessed as ergosterol level incubated for 48 hrs by LC/MS analysis. On the set-up: scale not given: the % may be the effect or the level left.
In test [16] the test system is Candida albicans. Nature of the test: Inhibition of SE/CYP51 in Candida albicans ATCC SC5314 assessed as squalene level incubated for 48 hrs by LC/MS analysis. Also noted: scale not given: the % may be the effect or the level left.
In test [17] the test system is Candida albicans. The test can be described thus: Inhibition of SE/CYP51 in Candida albicans ATCC SC5314 assessed as lanosterol level incubated for 48 hrs by LC/MS analysis. Also noted: scale not given: the % may be the effect or the level left.
Test [18] deals with Candida albicans. The test can be described thus: Inhibition of SE/CYP51 in Candida albicans ATCC SC5314 assessed as eburicol level incubated for 48 hrs by LC/MS analysis. On the set-up: scale not given: the % may be the effect or the level left.
The subject of test [19] is Candida albicans. Nature of the test: Inhibition of SE/CYP51 in Candida albicans ATCC SC5314 assessed as unknown sterol level incubated for 48 hrs by LC/MS analysis. On the set-up: scale not given: the % may be the effect or the level left.
The nature of test [20]: Inhibition of SE in Candida albicans ATCC SC5314 measured after 30 mins by HPLC analysis.

Values after ≈ are worked out from the molar mass of the structure shown.

For the compound `O=C(NC(Cn1cncn1)c1ccccc1)c1ccc2ccccc2c1` (stereo unspecified), the MIC50 (usually an inhibitory concentration at the 50% level, which refers to growth in some studies and to a panel of isolates in others) in test [1] worked out at 0.5 µg/mL (≈ 1.46 µM); in [2], 1 µg/mL (≈ 2.92 µM); in [3], 0.5 µg/mL (≈ 1.46 µM); in test [4], 0.5 µg/mL (≈ 1.46 µM); in test [5], 4 µg/mL (≈ 11.7 µM).
On to `O=C(/C=C/c1ccc2ccccc2c1)NC(Cn1cncn1)c1ccccc1` (stereo unspecified), for which the MIC50 in [1] is 0.25 µg/mL (≈ 0.679 µM); in test [2], 0.5 µg/mL (≈ 1.36 µM); in [3], 0.5 µg/mL (≈ 1.36 µM); in test [4], 0.25 µg/mL (≈ 0.679 µM); in test [5], more than 8 µg/mL.
In the case of `O=C(NC(Cn1ccnc1)C(=O)c1ccccc1)c1ccc2ccccc2c1` (stereo unspecified), the MIC50 in [1] is 0.125 µg/mL (≈ 0.338 µM); in [2], 0.25 µg/mL (≈ 0.677 µM); in test [3], 0.5 µg/mL (≈ 1.35 µM); in [4], 0.5 µg/mL (≈ 1.35 µM); in test [5], more than 8 µg/mL.
As to `O=C(NC(Cn1cncn1)c1ccccc1)c1cccc2ccccc12` (stereo unspecified), the MIC50 in test [1] is 0.25 µg/mL (≈ 0.73 µM); in [2], 2 µg/mL (≈ 5.84 µM); in test [3] it was 0.5 µg/mL (≈ 1.46 µM); in test [4], 0.125 µg/mL (≈ 0.365 µM); in [5], more than 8 µg/mL.
Regarding `O=C(NC(Cn1cncn1)C(=O)c1ccccc1)c1ccc2ccccc2c1` (stereo unspecified), the MIC50 is 0.25 µg/mL (≈ 0.675 µM) in test [1]; 0.5 µg/mL (≈ 1.35 µM) in test [2]; 1 µg/mL (≈ 2.7 µM) in test [3]; 0.25 µg/mL (≈ 0.675 µM) in [4]; 4 µg/mL (≈ 10.8 µM) in test [5].
For the compound `O=C(/C=C/c1cccc2ccccc12)NC(C(=O)Nc1ccncc1)c1ccccc1` (stereo unspecified), the MIC50 in [1] was 0.5 µg/mL (≈ 1.23 µM); in test [2] it was 0.25 µg/mL (≈ 0.614 µM); in test [3] it was 0.5 µg/mL (≈ 1.23 µM); in test [4], 0.5 µg/mL (≈ 1.23 µM); in test [5], more than 8 µg/mL.
As for `O=C(NC(Cn1ccnc1)C(=O)c1ccccc1)c1cccc2ccccc12` (stereo unspecified), the MIC50 in test [1] was 0.5 µg/mL (≈ 1.35 µM); in test [2], 1 µg/mL (≈ 2.71 µM); in test [3], 0.25 µg/mL (≈ 0.677 µM); in test [4] it was 0.5 µg/mL (≈ 1.35 µM); in test [5], 4 µg/mL (≈ 10.8 µM).
On to `O=C(/C=C/c1ccc2ccccc2c1)NC(Cn1ccnc1)C(=O)c1ccccc1` (stereo unspecified), for which the MIC50 in [1] is 0.5 µg/mL (≈ 1.26 µM); in test [2], 0.25 µg/mL (≈ 0.632 µM); in test [3], 0.5 µg/mL (≈ 1.26 µM); in test [4], 0.25 µg/mL (≈ 0.632 µM); in test [5] it was more than 8 µg/mL.
With `CN(C/C=C/c1ccccc1)Cc1cccc2ccccc12` [NAFTIFINE], the MIC50 was found to be 0.5 µg/mL (≈ 1.74 µM) in test [1]; 0.5 µg/mL (≈ 1.74 µM) in test [2]; 0.25 µg/mL (≈ 0.87 µM) in test [3]; 0.5 µg/mL (≈ 1.74 µM) in test [4]; 4 µg/mL (≈ 13.9 µM) in [5]; 4 µg/mL (≈ 13.9 µM) in test [6]. In addition, the MIC50 is more than 8 µg/mL in test [7], 4 µg/mL (≈ 13.9 µM) in test [8], more than 8 µg/mL in [9] and 4 µg/mL (≈ 13.9 µM) in test [10]. For the same compound, the Activity in test [11] is 38.54%; in test [12], 0.05%; in test [13], 60.92%; in test [14], 0.49%; in test [15], 24.3%; in test [16], 49.5%. The figures for the Activity in test [17], in [18] and in test [19] were 15.2%, 5.2% and 5.8%, respectively. Also, 469 nM corresponded to half-maximal inhibition in test [20] (IC50).
As for `O=C(/C=C/c1ccc2ccccc2c1)NC(C(=O)Nc1cccnc1)c1ccccc1` (stereo unspecified), the MIC50 was found to be 0.5 µg/mL (≈ 1.23 µM) in test [1]; 0.25 µg/mL (≈ 0.614 µM) in [2]; 1 µg/mL (≈ 2.45 µM) in test [3]; 0.25 µg/mL (≈ 0.614 µM) in test [4]; 4 µg/mL (≈ 9.82 µM) in [5].
For the compound `c1ccc2ccccc2c1` [NAPHTHALENE], the MIC50 in [1] was more than 64 µg/mL.
Turning to `O=C(/C=C/c1ccc2ccccc2c1)NC(C(=O)NCc1cccnc1)c1ccccc1` (stereo unspecified), the MIC50 in test [1] is 2 µg/mL (≈ 4.74 µM); in test [2] it was 0.5 µg/mL (≈ 1.19 µM); in [3], 1 µg/mL (≈ 2.37 µM); in [4] it was 2 µg/mL (≈ 4.74 µM); in test [5], more than 8 µg/mL.
Take `O=C(/C=C/c1ccc2ccccc2c1)NC(C(=O)Nc1ccncc1)c1ccccc1` (stereo unspecified): the MIC50 was 0.5 µg/mL (≈ 1.23 µM) in test [1]; 0.5 µg/mL (≈ 1.23 µM) in test [2]; 0.5 µg/mL (≈ 1.23 µM) in test [3]; 0.5 µg/mL (≈ 1.23 µM) in [4]; 2 µg/mL (≈ 4.91 µM) in test [5].
`O=C(/C=C/c1cccc2ccccc12)NC(C(=O)Nc1cccnc1)c1ccccc1` (stereo unspecified): the MIC50 in test [1] was 0.5 µg/mL (≈ 1.23 µM); in test [2], 1 µg/mL (≈ 2.45 µM); in [3], 0.5 µg/mL (≈ 1.23 µM); in test [4], 0.5 µg/mL (≈ 1.23 µM); in test [5], 4 µg/mL (≈ 9.82 µM).
